Where a SMILES comes first, the peptide text is derived from it. Bridges are numbered along the chain shown (N, C = ends). [ ]: non-standard residue; d: D form. The star is where a group is joined. Myristoyl = CCCCCCCCCCCCCC(=O)*; S5 = C=CCCC[C@](C)(N)C(=O)O
What was measured:
HeLa cells [1] = assay: DNA content (4N) by propidium iodide staining and flow cytometry, HeLa cells; assay type: cell-based, human; details: control compound 1 µM (maximum tolerated concentration), 24 h, flow cytometry, triplicate, error 1 σ
Experimental: (§1) 3 x10^4 L or Hela cells were seeded per well in 6–well plates and grown overnight. The following day, cells were treated with the indicated compound concentrations for 72 h or with nocodazole as a control for 24 h). Cells were washed, detached using trypsin and re-suspended in phosphate-buffered saline (PBS).
(§2) Cells were centrifuged at 200xg for 5 min at room temperature (RT) and washed again. Cells were then fixed with 70% ethanol and stained with propidium iodide solution (12 µg/mL propidium iodide (Sigma, Germany), 0.1% (v/v) Triton X-100 and 100 µg/mL DNase-free RNase A (Sigma, Germany) in PBS) for 30 min at room temperature. Cell suspensions were filtered to FACS tubes through a nylon mesh before analysis.
(§3) 10,000 cells for each sample were sorted by the BD LSRII analyzer (Becton Dickinson, USA). FlowJo 6.2.1 software was used for quantification and analysis of all data. For every analysis, FSC and SSC (forward and side scatter, respectively) gating was performed to exclude doublets and debris. In addition, cells were gated for singlets (PI-W vs. PI-A). […]

HeLa cells [2] = assay: Fluorescence microscopy of cell morphology (tubulin antibody, DAPI); assay type: cell-based, human; details: 1 μM, 24 h, fixation, anti-tubulin antibody and DAPI staining
Experimental: 2x10^4 Hela cells were seeded per well in a 24-well plate on cover slips and incubated overnight. Next day, cells were treated with different concentrations of the peptides or DMSO, nocodazole and cytochalasin D as controls and incubated at 37°C and 5% CO2 for the indicated times (72 h or 24 h). Cells were then fixed using 3.7% paraformaldehyde for 15 min at room temperature followed by permeabilization using 0.1% Triton X-100 in PBS for 15 min. Blocking was performed in 2% BSA in PBS containing 0.1% Tween 20 for 1 h at room temperature. Samples were incubated with the indicated primary antibodies (anti-tubulin primary antibody conjugated to FITC) in the blocking solution overnight at 4°C. After washing, cells were incubated with 1 µg/mL DAPI in blocking solution for 1 h at room temperature, followed by three washes with PBS.

mouse fibroblast L cells = assay: DNA content (4N) by propidium iodide staining and flow cytometry, L cells; assay type: cell-based; details: control compound 1 µM (maximum tolerated concentration), 24 h, flow cytometry, triplicate, error 1 σ
Experimental: as §1, §2, §3

HeLa cells [3] = assay: Cellular uptake of fluorescently labeled peptides by flow cytometry; assay type: cell-based, human; details: fluorescently labeled peptide, 5 μM, 90 min, flow cytometry fluorescence intensity, % of levels observed for R8
Experimental: As the knock‐down of UNC119a was reported to increase the number of cytokinetic and binucleated cells,13 we investigated the influence of UNC119‐binding peptides on cell morphology. Initially, the uptake of fluorescently labeled peptide 4 by HeLa cells was investigated by using flow cytometry (c=5 μM for 90 min, Figure S4 and Table S2). These measurements show cellular uptake of 4 reaching about 50 % of the levels observed for cell‐penetrating peptide octa‐arginine (R8).30 Considering that this cellular uptake was sufficient, we tested the effect of unlabeled peptide 4 on cell morphology. As a reference, we used nocodazole (NC), which inhibits tubulin polymerization thereby inducing cell‐cycle arrest in the G2/M phase that results in cells with increased DNA content because chromosomal DNA has already been duplicated. HeLa and mouse fibroblast L cells were incubated with different peptide concentrations for 72 h prior to quantification of DNA content by using flow cytometry.
Supporting Figure S4. Cellular uptake of fluorescently labeled peptides as determined by fluorescence
intensities using flow cytometry in HeLa cells (90 min incubation at c(peptide) = 5 µM).
(1 picture or pasted object on this page, not shown here)

MDA-MB-231 cells [4] = assay: Total intracellular peptide concentration by quantitative UPLC-MS; assay type: in vitro ADME; details: for Total drug content, pMols/million cells / Total drug content, Measured Conc: 25 µM compound, 0.5 h; for Total drug content, pMols/million cells: total lysis; for Total drug content, pMols/million cells / Total drug content, Measured Conc / Peptide concentration, total cell, 0.5 h: UPLC-MS; for Fold higher total cell uptake than peptide 10: 25 μM, 30 min, quantitative mass spectrometry; for Fold higher total cell uptake than peptide 10 / Peptide concentration, total cell, 0.5 h: MDA-MB-231 cells; for Total drug content, Measured Conc: concentration in re-suspended cell lysate, dilution factor 10; for Peptide concentration, total cell, 0.5 h: unlabeled peptide 25 μM, 0.5 h incubation, RIPA total lysis, LLOQ given if not detected
Experimental: (§4) Total intracellular and sub cellular concentrations
(§5) […] cells were cultured DMEM (high glucose) supplemented with 10% FCS and 1% Glutamax.
(§6) When 80% confluency cell culture media was removed from each flask and new media containing 25 µM of peptides was added and incubated with cells for 30 min and 72 h. Following peptide incubation, cells were washed twice with PBS, trypsinized and pelleted. Pellets where lysed in RIPA buffer (Perkin Elmer) for total […]
(§7) lysis; or CelLytic NuCLEAR Extraction Kit (SIGMA) for subcellular fractionation. Total protein quantification BCA (Pierce) was performed prior to MS analysis to normalize sample data.
(§8) Total and sub-cellular quantities of peptides 4, 10 and R8 were quantified[3] in lysates by UPLC-MS utilising a Waters Xevo TQ-XS (WBA0259) and a Waters Acquity UPLC system consisting of, Sample Manager (M16UFL953M), Acquity PDA (F17UPD457A), Column Oven (E17CMP703G) and Binary Solvent Manager (E17BUR621G). For peptides 4 and 10 analytical UPLC separation was performed using a Waters CSH C18 1.7 µm, 2.1 x 50 mm column. A gradient was utilized of 97% A to 5% in 4mins, 0.5 min hold, 5% A to 97% in 0.5mins, where A = 0.1% HCOOH (aq) and B = 0.1% HCOOH in MeCN at a flow rate of 0.75 mL/min (Supporting Figure S7). Compound R8 was analyzed in HILIC mode using a Waters BEH Amide 1.7 µm, 2.1 x 100 mm column with a gradient of 30% A to 95% in 1.5 mins, 1 min hold, 95% A to 30% in 1.5 min, 1 min hold at 0.65 mL/min. The Waters TQ-XS was operated in +ve ion Electrospray (ESI) mode with the optimized transitions for PC658-AC, PC658-MYR and Ac-R8 (Supporting Table S3 and Figure S8). The chromatograms at each transition were extracted, smoothed and integrated to give the standard curve. Chromatograms of the samples were treated similarly and by linear regression (1/x) an in-cell concentration was established in the re-suspended cell lysate using the Waters MassLynx TargetLynxTM product (Supporting Tables S4 – S7).

MDA-MB-231 cells [5] = assay: Subcellular (nucleus, cytosol) peptide concentration by quantitative UPLC-MS; assay type: in vitro ADME; details: for Peptide concentration, cytosol, 0.5 h / Peptide concentration, nucleus, 0.5 h / Peptide concentration, cytosol, 72 h / Peptide concentration, nucleus, 72 h: unlabeled peptide 25 μM, MDA-MB-231 cells, subcellular fractionation, LLOQ given if not detected; for Peptide concentration, cytosol, 0.5 h / Peptide concentration, nucleus, 0.5 h: 0.5 h incubation; for Peptide concentration, cytosol, 72 h / Peptide concentration, nucleus, 72 h: 72 h incubation
Experimental: as §4, §5, §6, §7, §8

UNC119a = target: T1, UNC119a (Homo sapiens, UniProt Q13432); assay: Fluorescence anisotropy binding assay, UNC119a; details: 5 nM fluorescein-labeled peptide, 4 h at room temperature, 30 mM Tris pH 7.5, 100 mM NaCl, 1 mM TCEP, 0.01% Chaps, triplicate, error 1 σ
T1 construct: made in house; host or cells: E. coli
Experimental: (§9) Fluorescence anisotropy assay
(§10) UNC119a/b was serially diluted in a buffer containing 30 mM Tris (pH 7.5), 100 mM NaCl, 1 mM TCEP and 0.01% Chaps (assay buffer), treated with 5 nM fluorescein-labeled peptides and incubated for 4 h at room temperature. Binding assays were performed in 384-well, small volume, black flat-bottom, non-binding plates (Greiner). Fluorescence polarization values (λex = 470 nm, λem = 525 nm) were determined using a Safire II plate reader (Tecan) at room temperature. All measurements were performed in triplicates. After correction for changes in fluorescence intensity upon binding, the fluorescence anisotropy data were converted into fraction bound (equation 1) of the FITC- labeled peptide and fitted via non-linear regression in Prism 5.0 (Graphpad).[1] fraction bound = A−Afree (1)
(§11) Afree: anisotropy of free fluorophore
(§12) Abound: anisotropy of bound fluorophore
(§13) Q: change in fluorescence intensity between free and bound state
(§14) Protein expression and purification
(§15) UNC119a and UNC119b were expressed in E. coli according to the previously reported procedures.[2] […]
(§16) Additionally, HeLa cells were supplemented with penicillin and streptomycin. All cultures were routinely tested and found to be free of mycoplasma contamination.

UNC119b = target: T2, UNC119b (Homo sapiens, UniProt A6NIH7); assay: Fluorescence anisotropy binding assay, UNC119b; details: 5 nM fluorescein-labeled peptide, 4 h at room temperature, 30 mM Tris pH 7.5, 100 mM NaCl, 1 mM TCEP, 0.01% Chaps, triplicate, error 1 σ
T2 construct: made in house; host or cells: E. coli
Experimental: as §9, §10, §11, §12, §13, §14, §15, §16

[6] = 25 µM compound, 0.5 h, concentration in lysate
[7] = 25 µM compound, 72 h, concentration in lysate

T2 sequence (A6NIH7 whole entry, species assumed): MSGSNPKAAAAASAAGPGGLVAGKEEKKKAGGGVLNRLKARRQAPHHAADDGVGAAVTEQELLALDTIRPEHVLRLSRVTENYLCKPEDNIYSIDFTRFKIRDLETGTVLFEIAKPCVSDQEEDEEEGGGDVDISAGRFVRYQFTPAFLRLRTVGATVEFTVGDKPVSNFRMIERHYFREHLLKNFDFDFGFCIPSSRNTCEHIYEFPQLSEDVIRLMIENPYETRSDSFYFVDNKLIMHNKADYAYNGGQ

Structure (SMILES)	Total drug content, pMols/million cells (MDA-MB-231 cells [4])	Fold higher total cell uptake than peptide 10 (MDA-MB-231 cells [4])	Total drug content, Measured Conc (MDA-MB-231 cells [4])	Peptide concentration, total cell, 0.5 h (MDA-MB-231 cells [4])	Peptide concentration, cytosol, 0.5 h (MDA-MB-231 cells [5])	Peptide concentration, nucleus, 0.5 h (MDA-MB-231 cells [5])	Peptide concentration, cytosol, 72 h (MDA-MB-231 cells [5])	Peptide concentration, nucleus, 72 h (MDA-MB-231 cells [5])	Kd (UNC119a)	Kd (UNC119b)	also measured
COC(=O)Nc1nc2ccc(C(=O)c3cccs3)cc2[nH]1 [nocodazole]	–	–	–	–	–	–	–	–	–	–	DNA-content 4N, HeLa cells (HeLa cells [1]): 68.6 ±4.2%; DNA-content 4N, HeLa cells (HeLa cells [1]; listed as NC): increased numbers of cells with doubled DNA content; Effect on HeLa cell morphology (HeLa cells [2]): deformation of the tubulin network; DNA-content 4N, L cells (mouse fibroblast L cells): 75.4 ± 15.0%; DNA-content 4N, L cells (mouse fibroblast L cells; listed as NC): increased numbers of cells with doubled DNA content
CCCCCCCCCCCCCC(=O)NCC(=O)N[C@@H](C)C(=O)NCC(=O)N[C@@H](C)C(=O)N[C@@H](CO)C(=O)N[C@@]1(C)CCCC=CCCC[C@@](C)(C(=O)N[C@@H](CCCCN)C(N)=O)NC(=O)[C@H](CCCCN)NC(=O)[C@H](CCC(=O)O)NC(=O)[C@H](CCC(=O)O)NC1=O [Peptide 4] (Myristoyl-GAGAS[S5]EEK[S5]K-NH2; staple 6-10)	59.9 pMols/million cells	more than 100 fold	155 nM	60 pmol per 10^6 cells	<0.001 pmol per 10^6 cells	0.22 pmol per 10^6 cells	0.01 pmol per 10^6 cells	0.45 pmol per 10^6 cells	5.5 nM	63.2 ± 14 nM	Cellular uptake relative to octa-arginine (R8) (HeLa cells [3]): about 50%
CC(=O)N[C@@H](CCCNC(=N)N)C(=O)N[C@@H](CCCNC(=N)N)C(=O)N[C@@H](CCCNC(=N)N)C(=O)N[C@@H](CCCNC(=N)N)C(=O)N[C@@H](CCCNC(=N)N)C(=O)N[C@@H](CCCNC(=N)N)C(=O)N[C@@H](CCCNC(=N)N)C(=O)N[C@@H](CCCNC(=N)N)C(N)=O [R8]	51.7 pMols/million cells	more than 100 fold	108 nM	52 pmol per 10^6 cells	0.58 pmol per 10^6 cells	0.56 pmol per 10^6 cells	0.65 pmol per 10^6 cells	0.64 pmol per 10^6 cells	–	–	Sub-cellular drug content, pMols/million cells, Cytoplasm, 0.5 h (MDA-MB-231 cells [5]; 25 µM compound, 0.5 h): 0.584 pMols/million cells; Sub-cellular drug content, pMols/million cells, Nuclear, 0.5 h (MDA-MB-231 cells [5]; 25 µM compound, 0.5 h): 0.563 pMols/million cells; Sub-cellular drug content, Measured Conc, Cytoplasm, 0.5 h (MDA-MB-231 cells [5]; [6]): 3.59 nM; Sub-cellular drug content, Measured Conc, Nuclear, 0.5 h (MDA-MB-231 cells [5]; [6]): 6.91 nM; Sub-cellular drug content, pMols/million cells, Cytoplasm, 72 h (MDA-MB-231 cells [5]; 25 µM compound, 72 h): 0.651 pMols/million cells; Sub-cellular drug content, pMols/million cells, Nuclear, 72 h (MDA-MB-231 cells [5]; 25 µM compound, 72 h): 0.638 pMols/million cells; Sub-cellular drug content, Measured Conc, Cytoplasm, 72 h (MDA-MB-231 cells [5]; [7]): 2.92 nM; Sub-cellular drug content, Measured Conc, Nuclear, 72 h (MDA-MB-231 cells [5]; [7]): 5.73 nM
CCCCCCCCCCCCCC(=O)NCC(=O)N[C@@H](C)C(=O)NCC(=O)N[C@@H](C)C(=O)N[C@@H](CO)C(=O)N[C@@H](C)C(=O)N[C@@H](CCC(=O)O)C(=O)N[C@@H](CCC(=O)O)C(=O)N[C@@H](CCCCN)C(=O)N[C@@H](Cc1c[nH]cn1)C(=O)N[C@@H](CCCCN)C(N)=O [Peptide 1] (Myristoyl-GAGASAEEKHK-NH2)	–	–	–	–	–	–	–	–	7.4 nM	11.2 nM	–

From publication PMC6973269, “Lipidated Stapled Peptides Targeting the Acyl Binding Protein UNC119” (Chembiochem, 2019)
